Data as given in article PMC2751816, “Functional, Non-Clonal IgM^a-Restricted B Cell Receptor Interactions with the HIV-1 Envelope gp41 Membrane Proximal External Region” (PLoS ONE, 2009).
Entries after “also recorded” stand apart in the source; their conditions may differ.

Experiments:
[1] = test system: expressed IgM^+ VH repertoire of splenic BALB/c B cells; experiment: VH family usage in gp41 MPER tetramer-sorted IgM^+ B cells (5' RACE); set-up: species or system mouse (BALB/c); settings: compared to total IgM^+ BALB/c B cells; Fisher Exact test; two sorts; Fig. 6B
Text: For sorting of gp41 MPER tetramer-binding B cells, single cell splenic suspensions were obtained from 5–10 naïve BALB/c 8 wk females, pooled, and purified by negative depletion with CD43 MACS beads (Miltenyi Biotechnology). The resulting B cell enriched fraction was stained as described in the flow cytometry methods section and sorted into B220^+ CD19^+ gp41 MPER^+ fractions using a BDFACS Aria. Sorting gates for the gp41 MPER^+ fractions were set to include all events greater than baseline staining without tetramer. Purity of sorted populations was verified by a 1000-event post-sort step.
For 5′ RACE analysis, gp41 MPER^+ fractions (or purified, unsorted splenic B cells) were spun down and washed, immediately after sorting. DNAse-free RNA was extracted and concentrated using RNEasy Mini and Micro kits, respectively (Qiagen) and quantitated using a NanoDrop ND-1000 spectrophotometer (Fisher). cDNA was synthesized by oligo-dT priming using SuperScript III (Invitrogen) and IgM-specific 5′ RACE products were amplified with the First Choice RLM-RACE PCR kit (Ambion), using mouse HC̃-specific primers in combination with 5′ RACE primers, according to the manufacturer's instructions. PCR products were cloned into pGEM-T Easy vectors (Promega), transformed in GC5 competent cells (CLP), and transformant DNA was isolated, sequenced and analyzed in Ig Blast.

[2] = test system: BALB/c B cells (gp41 MPER tetramer binding); experiment: Cold inhibition of APC-labeled gp41 MPER tetramer binding by unlabeled tetramers; type: cell-based, mouse (BALB/c)
Experimental: (§1) FACS staining of single cell suspensions (≥2×10^6) was conducted using pre-mixed combinations of fluorochrome-labeled Abs and APC-conjugated B cell tetramers at empirically-determined optimal concentrations. All Abs were from BD unless otherwise stated. Primary antibodies used were: PerCP anti-B220, FITC anti-IgD, FITC, PE or PE-Cy7 anti-IgM, PE anti-CD5, FITC anti-CD11b, PE-Cy7 anti-CD19, FITC anti-CD21, PE-Cy7 anti-CD23 (eBiosciences), and PE-Cy7 anti-CD93 (eBiosciences). Other reagents included biotinylated Abs against dump channel markers: Thy1 (Abcam), F4/80 (Abcam), CD11c, Gr-1, TER-119, and NK-1.1, secondary staining SA-Texas Red conjugate; v-amine live/dead violet dye (Molecular Probes), and Fc block (anti-CD16/32).
(§2) Staining was conducted at 4°C in several sequential steps in FACS staining buffer (1X PBS with 2% FCS, 0.1% NaN3), washing twice between steps. Cells were first incubated with v-amine live/dead dye for 15 min, then stained with APC-labeled tetramers for 30 min (and in some experiments, cold tetramer was incubated at 10 fold molar excess for 1 h, prior to staining with APC-labeled tetramers). Cells were then stained with Fc block, followed by incubation with combinations of primary Abs, and secondary staining with SA-Texas Red, each for 30 min. Data (≥2.5×10^5 events/sample) were acquired using an LSRII flow cytometer and Cell Quest software (BD Immunocytometry systems). FACS Analysis was performed using FlowJo software (Tree Star). For analysis, cells were gated in the following order: single cells were gated based on fsc height vs. fsc area+ssc height vs. ssc profiles, lymphocytes were gated on fsc and ssc profile, residual dead cells were excluded by negative gating with v-amine live/dead dye, and irrelevant non-B cells were excluded by negative gating with dump markers.

[3] = test system: phosphorylated Erk in BALB/c splenic B cells; experiment: Intracellular FACS of phosphorylated Erk1/2; type: cell-based, mouse (BALB/c); settings: naïve BALB/c splenocytes; gated on ligated B cells; Fig. 8B
Experimental: Splenocyte suspensions were incubated at 37°C for various times with either APC-labeled F(ab)'2 anti-IgM (Jackson ImmunoResearch) or APC-labeled gp41 MPER tetramers. Stimulations were stopped by the addition of PhosFlow Lyse/Fix buffer (BD) and incubation for 10 min at 37°C. Cells were stained with B220-FITC prior to permeabilization with PhosFlow Perm Buffer III (BD). Permeabilized cells were stained with a PE-labeled Ab to Erk1 and Erk2 (BD), according to the manufacturer's instructions. Cells were fixed with 2% paraformaldehyde, and all data were collected and analyzed as done for standard flow cytometry.

[4] = test system: naïve splenic C57BL/6 B cells; experiment: Flow cytometry: APC-labeled tetramer staining of C57BL/6 splenic B cells; type: cell-based, mouse (C57BL/6)
Experimental: N-biotinylated, linker/spacer-containing peptides used to make tetramers are detailed in Table S4 and Fig. 7A. Peptides were synthesized and purified using reverse-phase HPLC (Primm Biotechnology). To produce tetramerized forms of each peptides, 200 µM peptide and 6 µM APC-labeled streptavadin (SA) were combined at equal volumes, and mixtures were incubated at 4°C for 4 h. Unbound peptide was removed from peptide-APC complexes by centrifugal filtration using an Amicon Centriprep YM30 column (Millipore Corporation). Purified tetramer preparations were determined using the Micro BSA protein assay kit (Pierce Biotechnology).
as §1
as §2, with “For analysis, cells were gated in the following order: single cells were gated based on fsc height vs. fsc area+ssc height vs. ssc profiles, lymphocytes were gated on fsc and ssc profile, residual dead cells were excluded by negative gating with v-amine live/dead dye, and irrelevant non-B cells were excluded by negative gating with dump markers.” left out

[5] = test system: surface Ig on BALB/c splenic B cells; experiment: Microscopy of BCR cap formation (co-capping); type: cell-based, mouse (BALB/c); settings: anti-Ig stimulation, Fig. 4F
Experimental: Purified naïve splenic B cells were incubated on ice for 30 min with Alexa 488-labeled wheat germ agglutinin (Invitrogen) and 10 µg/ml R-PE-labeled goat anti-mouse IgM+IgG (H+L) F(ab)2 and APC-labeled gp41 MPER. After extensive washing, cells were stimulated for indicated times. Images were acquired with a Nikon TE2000-E2 inverted microscope employing a 40X magnification lens from a CoolSNAPPHQ2 monochrome camera.

For “QQEKNEQELLELDKWASLWN [gp41 MPER tetramer, (residues 659–678 of the HIV-1 envelope)]”, the “VH family usage in gp41 MPER-reactive B cells (in words)” value [1] was “most VH families were utilized at statistically comparable levels in gp41 MPER-reactive B cells, with the exception of two overutilized VH families: 36–60 and 7183”, the “inhibition of APC-labeled gp41 MPER tetramer binding” value ([2]; pre-incubation with unlabeled competitor at 10-fold molar excess, 100 ng/10^6 splenocytes) was over 90% and the “inhibition of APC-labeled gp41 MPER tetramer binding (in words)” value ([2]; unlabeled competitor tetramer pre-incubated, Fig. 4A,B, average of three experiments (4B)) was “Dose-dependent inhibition of APC-labeled gp41 MPER peptide binding was observed”. For the same sequence, the “Erk phosphorylation (in words)” value [3] was “detectable, but dampened induction of phosphorylated Erk; also recorded: peak gp41 MPER-induced Erk phosphorylation persisted at 30 min; also recorded: the entire population of gp41 MPER-gated B cells showed modest Erk activation”, the “MFI binding pattern (in words)” value ([4]; C57BL/6 B cells, Fig. 1A, 1C) was “gp41 MPER-reactive C57BL/6 B cells scattered further out across the APC channel” and the “gp41 MPER reactivity among B cell subsets (in words)” value ([4]; C57BL/6 MZ and B1a B cells, Table S2) was “did not reveal increased levels of MPER binding by MZ and B1a B cells”. The “percentage of tetramer-reactive B cells” value ([4]; total splenic B cells (CD19^+), naïve C57BL/6, APC tetramer 100 ng/10^6 splenocytes, above background without tetramer, Fig. 1A representative histogram) was 0.1–0.3% and the “co-capping with surface Ig (in words)” value [5] was “co-capped with surface Ig in BALB/c splenic B cells”.
